Molecular target: T1, Bile acid receptor (Homo sapiens, UniProt Q96RI1)
T1 sequence (Q96RI1 whole entry): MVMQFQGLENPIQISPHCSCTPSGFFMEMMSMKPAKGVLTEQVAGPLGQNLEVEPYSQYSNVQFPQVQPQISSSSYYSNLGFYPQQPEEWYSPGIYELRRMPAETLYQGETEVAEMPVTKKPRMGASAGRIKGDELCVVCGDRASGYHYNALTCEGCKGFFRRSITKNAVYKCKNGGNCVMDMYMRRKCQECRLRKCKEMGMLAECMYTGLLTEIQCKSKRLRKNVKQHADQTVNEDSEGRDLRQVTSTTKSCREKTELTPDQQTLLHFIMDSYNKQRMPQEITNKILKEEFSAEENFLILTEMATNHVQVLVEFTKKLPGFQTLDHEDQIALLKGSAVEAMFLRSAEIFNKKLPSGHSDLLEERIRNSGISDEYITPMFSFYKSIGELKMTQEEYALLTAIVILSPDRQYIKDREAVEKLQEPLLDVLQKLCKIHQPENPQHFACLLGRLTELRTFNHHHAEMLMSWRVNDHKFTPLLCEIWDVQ
Assay: FXR Reporter Assay kit purchased from Indigo Bioscience (Catalogue number: IB00601) to determine the potency and efficacy of compound developed by Enanta that can induce FXR activation. The principle application of this reporter assay system is to quantify functional activity of human FXR. The assay utilizes non-human mammalian cells, CHO (Chinese hamster ovary) cells engineered to express human NR1H4 protein (referred to as FXR). Reporter cells also incorporate the cDNA encoding beetle luciferase which catalyzes the substrates and yields photon emission. Luminescence intensity of the reaction is quantified using a plate-reading luminometer, Envision. Reporter Cells include the luciferase reporter gene functionally linked to an FXR responsive promoter. Thus, quantifying changes in luciferase expression in the treated reporter cells provides a sensitive surrogate measure of the changes in FXR activity. […] The assay is according to the manufacturer's instructions. In brief, the assay was performed in white, 96 well plates using final volume of 100 μl containing cells with different doses of compounds. Retrieve Reporter Cells from −80° C. storage. Perform a rapid thaw of the frozen cells by transferring a 10 ml volume of 37° C. cell recovery medium into the tube of frozen cells. Recap the tube of Reporter Cells and immediately place it in a 37° C. water bath for 5-10 minutes. […]
Assay type: cell-based

SMILES: CN(Cc1ccc(C(=O)NS(=O)(=O)N(C)C)cc1)c1ccc(OCc2c(-c3c(Cl)cccc3Cl)noc2C2CC2)nc1C(F)(F)F
- EC50: < 100 nM
